In BindingDB's records for doi:10.1021/cb600276q (Genentech, 2006):
Where a SMILES comes first, the peptide text is derived from it.

What was measured:
Assay in all cases: Fluorescence Polarization Affinity Measurements.
Conditions in all cases: pH 7.2; 22 °C
[1] = biological target: T1, Baculoviral IAP repeat-containing protein 2 [266-354] (Homo sapiens, UniProt Q13490)
T1 construct: 266-354
Method: (§1) Samples for fluorescence polarization affinity measurements were prepared by addition of serial dilutions of target protein to each well containing antagonist and polarization probe in the buffer. Samples were read after 30-min incubation. Fluorescence polarization values were plotted as a function of the antagonist concentration, and the IC50 values were obtained by fitting the data to a four-parameter equation using KaleidaGraph software. Ki values for the antagonists were determined from the IC50 values.

[2] = biological target: T2, Baculoviral IAP repeat-containing protein 3 [252-340] (Homo sapiens, UniProt Q13489)
T2 construct: 252-340
Method: as §1

[3] = biological target: T3, Complex of Baculoviral IAP repeat-containing protein 7 [1-159,S150G] and E3 ubiquitin-protein ligase XIAP [336-348] (Homo sapiens, UniProt Q96CA5, S150G)
T3 construct: 1-159; 336-348
Method: as §1

[4] = biological target: T4, E3 ubiquitin-protein ligase XIAP [241-356] (Homo sapiens, UniProt P98170)
T4 construct: 241-356
Method: as §1

Row | Ki [1] | Ki [2] | Ki [3] | Ki [4] | Compound
1 | 50 nM | 130 nM | – | – | CN[C@@H](C)C(=O)N[C@H]1CCC[C@H]2SC(C)(C)[C@@H](C(=O)Nc3cc(C)nn3-c3ccccc3)N2C1=O [(3R,6S,9aR)-2,2-dimethyl-N-(3-methyl-1-phenyl-1H-pyrazol-5-yl)-6-[(2S)-2-(methylamino)propanamido]-5-oxo-octahydroazepino[2,1-b][1,3]thiazole-3-carboxamide]
2 | 110 nM | 490 nM | – | – | CN[C@@H](C)C(=O)N[C@H]1CCC[C@H]2SC[C@@H](C(=O)Nc3cc(C)nn3-c3ccccc3)N2C1=O [(3R,6S,9aR)-N-(3-methyl-1-phenyl-1H-pyrazol-5-yl)-6-[(2S)-2-(methylamino)propanamido]-5-oxo-octahydroazepino[2,1-b][1,3]thiazole-3-carboxamide]
3 | 30 nM | 70 nM | 40 nM | 50 nM | CC(C)[C@H](NC(=O)[C@H](C)N)C(=O)N1CCC[C@H]1C(=O)N[C@@H](Cc1c[nH]c2ccccc12)C(=O)O [L-alanyl-L-valyl-L-prolyl-L-tryptophan] (H-AVPW-OH)
